The source of these data is patent US20200399632A1, “SENSOR SYSTEMS” (enEvolv, Inc., priority 2018, published 2020).

Data set [1] in a line: Diffusion between droplets: naringenin droplets co-incubated with sensor cell droplets. The data set is classed as physicochemical. The conditions noted are these: droplets with 500 μM naringenin mixed with sensor cell droplets; 1% Ran Fluorosurfactant in HFE7500; FIG. 6. The procedure:
FIG. 6 is an image showing fluorescence of two sets of droplet co-incubated for 24 hours. The first set of droplets contained 500 μM naringenin and the second set of droplets contained naringenin sensor cells. If diffusion was occurring between the droplets, the sensor cells would become fluorescent over the 24 hour period.
2E6 pNARnull, 2E6 pNAR^low, 2E6 pNARhigh, were co-cultured with the E. coli BW25113 Δptsl::kanR pSENSORGFP-PtsI sensor strain described in Example 3. The four cultures were grown overnight in LB medium, subdiluted 1 to 100 in minimal medium supplemented with the appropriate antibiotic and then grown into log phase. Once in log phase, the E. coli were rinsed 3× with 1× filtered M9 salts and then diluted to an OD600 of 1.0. The 2E6 strains were diluted to an OD600 of 0.01 to ensure that a single producer strain is present in each encapsulated droplet and the sensor cells were diluted to 0.1 to ensure that each droplet gets at least 5 sensor cells. Six sets of droplets were produced, (1) sensor cell only, (2) sensor cell with 500 μM naringenin, (3) 2E6 pNARhigh with sensor cell and 1 mM IPTG, (4) 2E6 pNARnull with sensor cell and 1 mM IPTG, (5), 2E6 pNARlow with sensor cell and 1 mM IPTG, and (6) naringenin only droplets. […] Double emulsions were analyzed under the microscope prior to FACS analysis. […]

The subject of data set [2] is TtgR. Put plainly: TtgR sensor GFP response of MAGE-engineered E. coli MG1655 mutants to exogenously applied naringenin. The data set is classed as cell-based. The conditions noted are these: naringenin 0, 31, 63 or 125 μM; three MAGE-engineered E. coli MG1655 clones, medium-copy plasmid with TtgR and gfp. The source says: The three clones were transformed with a medium-copy plasmid harboring TtgR and gfp under the control of an engineered ttgAp promoter. […] No naringenin pathway enzymes were present during these experiments, eliminating any interference by endogenously produced naringenin. The variation was not resolved upon transferring the sensor system to the genome (not shown) or switching to a high-copy sensor plasmid (FIG. 2A).

The test system of data set [3] is E. coli BW25113 Δptsl::kanR pSENSORGFP-PtsI sensor strain. Put plainly: GFP fluorescence of sensor cells encapsulated in droplets with naringenin (microscope). The data set is classed as cell-based. Conditions: 500 μM naringenin with sensor cells; 33° C., 48 hours; FIG. 5d. The text has this: FIGS. 4A-B establish co-culturing of producer cells and sensor cells as a viable strategy for screening. Sensor cells were engineered in an E. coli BW25113 Δptsl::kanR background, which is unable to grow on glucose as a sole carbon source. The glucose transporter ptsl and fluorescence reporter gfp were expressed co-cistronically under the control of a TtgR-regulated promoter on the plasmid pSENSORGFP-PtsI, such that growth and the magnitude of GFP signal are naringenin-dependent. […] Following incubation, the water-in-oil droplets were encapsulated in another aqueous phase, generating water-in-oil-in-water droplets, which were observed on a standard fluorescence activated cell sorter (FACS). […]
2E6 pNARnull, 2E6 pNAR^low, 2E6 pNARhigh, were co-cultured with the E. coli BW25113 Δptsl::kanR pSENSORGFP-PtsI sensor strain described in Example 3. […] Double emulsions were analyzed under the microscope prior to FACS analysis. […]

`O=C1C[C@@H](c2ccc(O)cc2)Oc2cc(O)cc(O)c21` [naringenin]: the diffusion between droplets result in data set [1] is “no diffusion between droplets”. In addition, in data set [2], the “GFP expression induced in TtgR sensor strains” value was “induced different levels of GFP expression”. Further, in data set [3], the “fluorescence of positive control droplets” value is recorded as “very fluorescent”.
